Molecules are shown by their SMILES. Entries after “also recorded” stand apart in the source; their conditions may differ.

Experiment [1] has as its system Mouse fibroblasts. In words: Induction of pluripotency in mouse fibroblasts by intermittent incubation with poly-Arg transcription factor proteins (Example 1). In kind it is cell-based. Particulars: added and/or combined during protein treatment of mouse fibroblasts. The protocol: Mouse fibroblasts were grown in mESC medium supplemented with 8 μg/ml of either Oct4/Sox2/Klf4 or Oct4/Sox2/Klf4/Myc (all proteins comprising poly-Arg as described above) for 6-8 hours, washed, and incubated for 2-3 days in mESC media without the above-listed transcription factors. This (4-12 hours with, 1-3 days without) was repeated a number (1, 2, 3, 4, or more) of times and then the cells were cultures in mESC for two weeks.

The subject of experiment [2] is reprogramming efficiency. As to conditions: HDAC inhibitor; Huangfu et al. 2008a; cited from earlier work.
Experiment [3] concerns mouse fibroblast cells treated with exogenous Oct4/Sox2/Klf4/Myc polypeptides. As to the kind of experiment: Oct4-positive colonies from an intermediate iPSC clone after small molecule treatment (Example 3, FIG. 5). In kind it is cell-based. As to conditions: combined treatment 0.5 μM PD0325901, 3 μM CHIR99021, 0.5 μM A-83-01, counted 2 weeks after treatment. As to the method: FIG. 5. […] A comparison of the number of Oct4^+ iPS cell colonies generated from mouse fibroblast cells treated with exogenous Oct4/Sox2/Klf4/Myc polypeptides, and with or without 0.5 μM PD0325901, 3 μM CHIR99021, and 0.5 μM A-83-01. Y-axis represents percentage of Oct4′ colonies within total number of colonies.
We tested the TGFβ receptor inhibitor (A-83-01), MEK inhibitor (PD0325901) and GSK-3 inhibitor (CHIR99021), on mouse fibroblast cells that were treated with exogenous Oct4, Klf4, Sox2 and c-Myc polypeptides, for their effects on reprogramming kinetics and efficiency.
Mouse fibroblasts were grown in mESC growth medium [Knockout DMEM (Invitrogen) supplemented with 10% ES-FBS+10% KSR, 0.1 mM 2-ME, 1% Glutamax, 1% Non-essential amino acids, 1% EmbryoMax ESC Qualified Nucleosides (Millipore), and 10^3 units/ml LIF (ESGRO, Chemicon International)] supplemented with 8 μg/ml of Oct4/Sox2/Klf4/Myc (all four transcription factors are tagged with poly-Arg […]; SEQ ID NO:2) for 4-12 hours, followed by culturing the cells in the absence of the Oct4/Sox2/Klf4/Myc polypeptides for one day. This procedure was repeated 4 times. The cells were then cultured in mESC medium for another two weeks. iPSC clones were detected by colony morphology and expression of pluripotency markers. An intermediate iPSC clone, which expresses ALP but not Oct4 (Oct4), was dissociated with Trypsin-EDTA. The clone was then expanded by continuous culturing with regular mESC medium or medium supplemented with 0.5 μM PD0325901, 3 μM CHIR99021, 0.5 μM A-83-01. The number of Oct4-positive colonies were counted 2 weeks after small molecule treatment (FIG. 5).

Experiment [4] relates to cellular reprogramming. In words: Enhancement of cellular reprogramming by nuclear receptor ligands. In kind it is cell-based.

In the case of `NC(=O)c1ccc(-c2nc(-c3ccc4c(c3)OCO4)c(-c3ccccn3)[nH]2)cc1` [SB431542], in experiment [1], the “effect on efficiency and speed of development of pluripotent cells” value (from here on “effect on efficiency and speed”) is “improved efficiency and speed of development of pluripotent cells”.

`CCCC(CCC)C(=O)O` [valproic acid]: in experiment [2], the “effect on reprogramming efficiency” value is recorded as “can significantly improve the reprogramming efficiency”.

As to `Cc1c[nH]c(-c2cnc(NCCNc3ccc(C#N)cn3)nc2-c2ccc(Cl)cc2Cl)n1` [CHIR99021], the “effect on reprogramming efficiency and kinetics / iPSC generation (Oct4-positive colonies)” value in experiment [3] is “increases reprogramming efficiency and accelerates reprogramming kinetics; also recorded: enhanced iPSC generation”. For the same compound, in experiment [1], the “effect on efficiency and speed” value is “improved efficiency and speed of development of pluripotent cells”.

For `C=C(c1ccc(C(=O)O)cc1)c1cc2c(cc1C)C(C)(C)CCC2(C)C` [Bexarotene], the “effect on cellular reprogramming” value in experiment [4] (3 μM) is given as “can enhance cellular reprogramming”.

Consider `CC(C)C[C@H](NC(=O)OCC1c2ccccc2-c2ccccc21)C(=O)O` [Fmoc-Leu], for which the “effect on cellular reprogramming” value in experiment [4] (5 μM) is recorded as “can enhance cellular reprogramming”.

For `Cc1cccc(-c2nn(C(=S)Nc3ccccc3)cc2-c2ccnc3ccccc23)n1` [A-83-01, 3-(6-Methyl-2-pyridinyl)-N-phenyl-4-(4-quinolinyl)-1H-pyrazole-1-carbothioamide], the “effect on reprogramming efficiency and kinetics / iPSC generation (Oct4-positive colonies)” value in experiment [3] is “increases reprogramming efficiency and accelerates reprogramming kinetics; also recorded: enhanced iPSC generation”.

`O=C(NOC[C@H](O)CO)c1ccc(F)c(F)c1Nc1ccc(I)cc1F` [PD0325901]: the “effect on reprogramming efficiency and kinetics / iPSC generation (Oct4-positive colonies)” value was “increases reprogramming efficiency and accelerates reprogramming kinetics” in experiment [3]; “enhanced iPSC generation” in experiment [3] (listed as PD0320501). Further, in experiment [1], the “effect on efficiency and speed” value is “improved efficiency and speed of development of pluripotent cells”.

(Values after patent US9068170B2, “Generation of pluripotent stem cells using recombinant proteins” (THE SCRIPPS RESEARCH INSTITUTE, priority 2008, dated 2015).)
